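In this assay, cells in 96-well plates receive the compound at five concentrations for 48 hours. Endpoints are linearly interpolated between the surrounding concentrations. At the GI50, growth is halved. Definition used: TGI = concentration required for complete inhibition of growth.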
Key:
Experiment in all cases: NCI-60 cell line screen, 48 h
[1] = test system: SF-268 CNS
[2] = test system: K-562 leukemia
[3] = test system: RPMI-8226 leukemia
[4] = test system: COLO 205 colon
[5] = test system: M14 melanoma
[6] = test system: NCI-H23 lung
[7] = test system: CCRF-CEM leukemia
[8] = test system: HT29 colon
[9] = test system: A498 renal
[10] = test system: NCI-H522 lung
[11] = test system: UACC-257 melanoma
[12] = test system: CAKI-1 renal
[13] = test system: PC-3 prostate
[14] = test system: UACC-62 melanoma
[15] = test system: NCI-H226 lung
[16] = test system: MCF7 breast
[17] = test system: OVCAR-8 ovarian
[18] = test system: MOLT-4 leukemia
[19] = test system: MALME-3M melanoma
[20] = test system: SK-MEL-5 melanoma
[21] = test system: ACHN renal
[22] = test system: SF-539 CNS
[23] = test system: KM12 colon
[24] = test system: NCI-H460 lung
[25] = test system: TK-10 renal
[26] = test system: MDA-MB-231 breast
[27] = test system: HCT-116 colon
[28] = test system: RXF 393 renal
[29] = test system: HOP-62 NSCLC
[30] = test system: HS 578T breast
[31] = test system: OVCAR-4 ovarian
[32] = test system: IGROV1 ovarian
[33] = test system: 786-0 renal
[34] = test system: T-47D breast
[35] = test system: HOP-92 NSCLC
[36] = test system: SK-MEL-2 melanoma
[37] = test system: OVCAR-5 ovarian
[38] = test system: SN12C renal
[39] = test system: SNB-19 CNS
[40] = test system: SW-620 colon
[41] = test system: NCI/ADR-RES ovarian
[42] = test system: EKVX NSCLC
[43] = test system: SR leukemia
[44] = test system: SK-MEL-28 melanoma
[45] = test system: LOX IMVI melanoma
[46] = test system: SNB-75 CNS
[47] = test system: A549 NSCLC
[48] = test system: MDA-MB-435
[49] = test system: HL-60(TB) leukemia
[50] = test system: U251 CNS
[51] = test system: DU-145 prostate
[52] = test system: SK-OV-3 ovarian
[53] = test system: HCC-2998 colon
[54] = test system: UO-31 renal
[55] = test system: BT-549 breast
[56] = test system: HCT-15 colon
[57] = test system: SF-295 CNS

With `O=C(NNc1nc2cc(F)ccc2n2c(CN3CCCC3)ccc12)c1cnccn1` the GI50 [1] was 1.38 µM, the TGI [1] was 33.9 µM and the GI50 [2] was 0.599 µM. The TGI [2] was over 100 µM, the GI50 [3] was 0.955 µM and the TGI [3] was 49.2 µM. The GI50 [4] was 1.62 µM, the TGI [4] was 15.1 µM and the GI50 [5] was 1.61 µM. The TGI [5] was 12.1 µM, the GI50 [6] was 2.45 µM and the TGI [6] was 18.5 µM. For the same molecule, the GI50 [7] was 0.521 µM, the TGI [7] was over 100 µM and the GI50 [8] was 0.599 µM. It also gave a TGI [8] of 14.1 µM, a GI50 [9] of 1.31 µM and a TGI [9] of 4.99 µM. The GI50 [10] was 2.12 µM, the TGI [10] was 5.55 µM and the GI50 [11] was 2.14 µM. It also gave a TGI [11] of 6.87 µM, a GI50 [12] of 1.61 µM and a TGI [12] of 18.1 µM. The GI50 [13] was 2.17 µM, the TGI [13] was 19.8 µM and the GI50 [14] was 2.62 µM. It also gave a TGI [14] of 8.34 µM, a GI50 [15] of 3.33 µM and a TGI [15] of 23.1 µM. The GI50 [16] was 0.932 µM, the TGI [16] was 8.1 µM and the GI50 [17] was 1 µM. It also gave a TGI [17] of 10.6 µM, a GI50 [18] of 0.773 µM and a TGI [18] of over 100 µM. It also gave a GI50 [19] of 2.81 µM, a TGI [19] of 54.2 µM and a GI50 [20] of 2.81 µM. For the same molecule, the TGI [20] was 8.1 µM, the GI50 [21] was 0.899 µM and the TGI [21] was over 100 µM. The GI50 [22] was 1.49 µM, the TGI [22] was 10.4 µM and the GI50 [23] was 1.19 µM. It also gave a TGI [23] of 16.5 µM, a GI50 [24] of 0.568 µM and a TGI [24] of 5.43 µM. The GI50 [25] was 1.6 µM, the TGI [25] was 9.84 µM and the GI50 [26] was 2.3 µM. It also gave a TGI [26] of 20.2 µM, a GI50 [27] of 0.725 µM and a TGI [27] of 12.4 µM. The GI50 [28] was 1.62 µM, the TGI [28] was 7.56 µM and the GI50 [29] was 0.613 µM. The TGI [29] was 6.3 µM, the GI50 [30] was 4.55 µM and the TGI [30] was over 100 µM. The GI50 [31] was 2.05 µM, the TGI [31] was 55.8 µM and the GI50 [32] was 0.747 µM. The TGI [32] was 11.5 µM, the GI50 [33] was 2.07 µM and the TGI [33] was 11.3 µM. It also gave a GI50 [34] of 2.39 µM, a TGI [34] of 48.2 µM and a GI50 [35] of 2.6 µM. The TGI [35] was 28.9 µM, the GI50 [36] was 2.48 µM and the TGI [36] was 10.8 µM. It also gave a GI50 [37] of 1.31 µM, a TGI [37] of 16.1 µM and a GI50 [38] of 2.16 µM. It also gave a TGI [38] of over 100 µM, a GI50 [39] of 2.39 µM and a TGI [39] of 24.6 µM. It also gave a GI50 [40] of 1.93 µM, a TGI [40] of 16.7 µM and a GI50 [41] of 0.569 µM. The TGI [41] was 6.32 µM, the GI50 [42] was 1.01 µM and the TGI [42] was 16.2 µM. For the same molecule, the GI50 [43] was 0.416 µM, the TGI [43] was over 100 µM and the GI50 [44] was 3.4 µM. It also gave a TGI [44] of 21.4 µM, a GI50 [45] of 0.893 µM and a TGI [45] of 11 µM. It also gave a GI50 [46] of 3.72 µM, a TGI [46] of 30.9 µM and a GI50 [47] of 1.38 µM. For the same molecule, the TGI [47] was 12.2 µM, the GI50 [48] was 3.95 µM and the TGI [48] was over 100 µM. For the same molecule, the GI50 [49] was 1.43 µM, the TGI [49] was 4.84 µM and the GI50 [50] was 1.19 µM. It also gave a TGI [50] of 14.6 µM, a GI50 [51] of 1.49 µM and a TGI [51] of 13 µM. It also gave a GI50 [52] of 1.67 µM, a TGI [52] of 12.8 µM and a GI50 [53] of 3.51 µM. For the same molecule, the TGI [53] was 27.8 µM, the GI50 [54] was 0.375 µM and the TGI [54] was 9.57 µM. For the same molecule, the GI50 [55] was 3.26 µM, the TGI [55] was 26 µM and the GI50 [56] was 0.324 µM. For the same molecule, the TGI [56] was 21.7 µM, the GI50 [57] was 0.627 µM and the TGI [57] was 15.8 µM.

— PubChem BioAssay (NCI)
